# Assays:
# ERK1/2 [1] = experiment: ERK-KTR live-cell ERK activity reporter in HCT-116, […] h; assay type: cell-based
# ERK1/2 [2] = experiment: ERK-KTR live-cell ERK activity reporter in SH-SY5Y, […] h; assay type: cell-based
SMILES,IC50 (ERK1/2 [1]) [nM],IC50 (ERK1/2 [2]) [nM]
"CC(C)Nc1cc(-c2c[nH]c(C(=O)N[C@H](CO)c3cccc(Cl)c3)c2)c(Cl)cn1 [Ulix, ulixertinib]",32,–
"O=C(Nc1ccc2[nH]nc(-c3ccncc3)c2c1)[C@@H]1CCN(CC(=O)N2CCN(c3ccc(-c4ncccn4)cc3)CC2)C1 [SCH, SCH772984]",–,75

# — publication PMC9358475 (The Journal of Biological Chemistry, 2022)
